Drawing on patent US10214546B2, “Btk inhibitors” (MERCK SHARP & DOHME CORP., priority 2014, dated 2019), this text covers IC50 for ten compounds.

Where two headings read alike, the source gives them in different places.

In assay [1] the target is BTK enzyme (recombinant full-length BTK, hBTK) (Homo sapiens (Human), UniProt Q06187). Description: BTK enzymatic activity LANCE TR-FRET assay. It counts as biochemical. As to conditions: 50 pM hBTK, 25 μM ATP, 2 μM biotin-A5-peptide; compound range 1 μM to 0.017 nM; read-out: BTK binding IC50. Here is the method: Btk Enzyme Activity Assay Methods
Sequence of BTK enzyme (recombinant full-length BTK, hBTK) (Q06187 whole entry): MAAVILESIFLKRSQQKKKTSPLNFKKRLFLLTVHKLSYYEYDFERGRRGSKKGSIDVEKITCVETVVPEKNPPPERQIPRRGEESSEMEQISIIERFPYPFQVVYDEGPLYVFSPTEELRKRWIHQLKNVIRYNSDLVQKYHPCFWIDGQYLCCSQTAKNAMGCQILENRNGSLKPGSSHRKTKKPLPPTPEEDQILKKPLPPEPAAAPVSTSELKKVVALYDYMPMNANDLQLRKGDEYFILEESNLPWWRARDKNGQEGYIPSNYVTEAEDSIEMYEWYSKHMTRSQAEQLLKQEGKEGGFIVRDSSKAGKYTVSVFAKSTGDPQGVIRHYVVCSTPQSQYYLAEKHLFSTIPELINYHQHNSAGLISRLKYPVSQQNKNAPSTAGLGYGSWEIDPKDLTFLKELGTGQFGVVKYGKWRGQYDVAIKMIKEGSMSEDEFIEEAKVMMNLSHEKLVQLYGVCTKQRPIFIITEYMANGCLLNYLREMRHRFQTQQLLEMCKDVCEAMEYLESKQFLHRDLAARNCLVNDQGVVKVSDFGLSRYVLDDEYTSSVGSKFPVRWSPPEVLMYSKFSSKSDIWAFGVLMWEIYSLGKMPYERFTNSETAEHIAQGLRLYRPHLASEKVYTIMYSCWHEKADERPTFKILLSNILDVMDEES
BTK enzymatic activity was determined with the LANCE (Lanthanide Chelate Excite) TR-FRET (Time-resolved fluorescence resonance energy transfer) assay. […] Phosphorylation reactions were allowed to proceed for 120 minutes. […] After 60 minutes incubation with detection reagents, reaction plates were read on a PerkinElmer EnVision plate reader using standard TR-FRET protocol. […] IC50 values were determined by 4 parameter robust fit of TR-FRET ratio values vs. (Log10) compound concentrations.

In assay [2] the test system is adenosine uptake into HeLa cells. Put plainly: [3H]Adenosine uptake assay in HeLa cells. It counts as cell-based. As to conditions: [3H]adenosine accumulation in HeLa cells, compound range 10 μM to 0.032 nM, read-out: ADU inhibition IC50. Here is the method:
Compounds are also screened in an adenosine uptake functional cellular assay using the protocol described below:
[^3H]Adenosine Uptake Assay Methods
Adenosine uptake activity was determined by monitoring the accumulation of tritiated adenosine into HeLa cells (ATCC catalog # CCL-2) using a PMT-based radiometric detection instrument. In this assay, the potency (IC50) of each compound was determined from a ten point (1:3 serial dilution; final compound concentration range in assay from 10 µM to […]) titration curve using the following outlined procedure. To each well of a 96-well CytoStar-T scintillating microplate (Perkin Elmer Catalog # RPNQ0163), 25 000 HeLa cells in 100 µL of growth medium comprising: Minimum Essential Media (Life Technologies Catalog #11095-080)+10% (v/v) foetal bovine serum (FBS; Sigma Aldrich Catalog # F2442) was added. These cells were incubated overnight at 37° C. in a humidified atmosphere with 5% (v/v) CO2. After this time the growth medium was removed and replaced with 40 μL assay medium comprising: Hanks balanced salts solution (HBSS; Thermo Fisher Catalog # SH30268.01)+5% (v/v) FBS. Compound stock solutions in DMSO were diluted in assay medium to 2.5× final compound concentration maintaining a constant DMSO concentration of 0.25% (v/v). 40 μL of compound in assay medium was dispensed into individual wells of the Cytostar-T plates and the plates were incubated for 30 minutes under ambient laboratory conditions. Following this incubation, 20 μL of 500 nM [^3H] adenosine (American Radiolabeled Chemicals Inc. […] The amount of radiolabel accumulation was then determined using a Perkin Elmer Topcount NXT microplate reader. In brief, HeLa cells adhere to the bottom of the Cytostar-T plate, uptake of [^3H]adenosine into these cells brings the radiolabel into sufficient proximity to excite the scintillant in the base of the plates. These events are captured by single PMT, time-resolved coincidence counting. IC50 values were determined by 4 parameter robust fit of counts per second values vs. (Log10) compound concentrations.

For orientation: IC50 means the concentration needed to halve the response being measured. As for `C[C@@](O)(c1ccc(-c2nc([C@@H]3CC[C@H]4CCC(=O)N4C3)n3ccnc(N)c23)cc1)c1cccc(CC(F)(F)F)c1` [Example 78, (6R,8aS)-6-[8-amino-1-(4-{(1R)-1-hydroxy-1-[3-(2,2,2-trifluoroethyl)phenyl]ethyl}phenyl)imidazo[1,5-a]pyrazin-3-yl]hexahydroindolizin-3(2H)-one], the IC50 in assay [1] is 0.17 nM; in assay [2] (Homo sapiens, HeLa) it was 2850 nM. Take `C[C@](O)(c1ccc(-c2nc([C@@H]3CC[C@H]4CCC(=O)N4C3)n3ccnc(N)c23)cc1)c1cccc(OC(F)(F)F)c1` [Example 56, (6R,8aS)-6-[8-amino-1-(4-{(1S)-1-hydroxy-1-[3-(trifluoromethoxy)phenyl]ethyl}phenyl)imidazo [1,5-a]pyrazin-3-yl]hexahydroindolizin-3(2H)-one]: the IC50 was determined as 583 nM in assay [1] and 901 nM in assay [2] (Homo sapiens, HeLa). Turning to `CC1(C)CC(=O)N2C[C@@H](c3nc(-c4ccc([C@@](C)(O)c5cccc(C(F)(F)F)c5)cc4)c4c(N)nccn34)CC[C@@H]21` [Example 161, (6S,8aR)-6-[8-amino-1-(4-{(1R)-1-hydroxy-1-[3-(trifluoromethyl)phenyl]ethyl}phenyl)imidazo [1,5-a]pyrazin-3-yl]-1,1-dimethylhexahydroindolizin-3(2H)-one], the IC50 in assay [1] amounted to 0.27 nM; in assay [2] (Homo sapiens, HeLa), 2140 nM. Consider `C[C@](O)(c1ccc(-c2nc([C@@H]3CC[C@H]4CCC(=O)N4C3)n3ccnc(N)c23)cc1)c1cccc(OC2CC2)c1` [Example 94, (6R,8aS)-6-[8-amino-1-(4-{(1S)-1-[3-(cyclopropyloxy)phenyl]-1-hydroxyethyl}phenyl)imidazo[1,5-a]pyrazin-3-yl]hexahydroindolizin-3(2H)-one], for which the concentration for half-maximal inhibition (IC50) in assay [1] was determined as 201 nM; in assay [2] (Homo sapiens, HeLa) it was 800 nM. The like results for `CN1CC[C@H]2CC[C@H](c3nc(-c4ccc([C@@](C)(O)c5cccc(C(F)(F)F)c5)cc4)c4c(N)nccn34)CN2C1=O` [Example 118, (4aR,7S)-7-[8-amino-1-(4-{(1R)-1-hydroxy-1-[3-(trifluoromethyl)phenyl]ethyl}phenyl)imidazo [1,5-a]pyrazin-3-yl]-2-methyloctahydro-1H-pyridol[1,2-c]pyrimidin-1-one] were, in that order, 83.2 nM and 1490 nM. Turning to `Nc1ncc(Cl)n2c([C@@H]3CC[C@H]4CCC(=O)N4C3)nc(-c3ccc(C(O)c4cc(C(F)(F)F)ccc4F)cc3)c12` (stereo partly drawn) [Example 129, (6R,8aS)-6-[8-amino-5-chloro-1-(4-{[2-fluoro-5-(trifluoromethyl)phenyl] (hydroxy)methyl}phenyl)imidazo[1,5-a]pyrazin-3-yl]hexahydroindolizin-3(2H)-one], the IC50 in assay [1] is 12.2 nM; in assay [2], 1660 nM. The corresponding values for `CC(O)(c1cccc(C(F)F)c1)c1ccc(-c2nc([C@@H]3CC[C@H]4CCC(=O)N4C3)n3ccnc(N)c23)c(F)c1` (some centres unmarked) [Example 195] are 0.33 nM and 3500 nM. Consider `CC(O)(c1ccccc1)c1ccc(-c2nc([C@@H]3CC[C@H]4CCC(=O)N4C3)n3ccnc(N)c23)cc1` (stereo partly drawn) [Example 23, (6R,8aS)-6-{8-amino-1-[4-(1-hydroxy-1-phenylethyl)phenyl]imidazol[1,5-a]pyrazin-3-yl}hexahydroindolizin-3(2H)-one], for which the IC50 in assay [1] was 3.5 nM.

For `Nc1nccn2c([C@@H]3CC[C@H]4CCC(=O)N4C3)nc(-c3ccc(C(O)(c4ccc(F)cc4)C(F)(F)F)cc3)c12` (stereo partly drawn) [Example 32, (6R,8aS)-6-(8-amino-1-{4-[2,2,2-trifluoro-1-(4-fluorophenyl)-1-hydroxyethyl]phenyl}imidazo[1,5-a]pyrazin-3-yl)hexahydroindolizin-3(2H)-one], in assay [1], the IC50 was determined as 161 nM. On the same count and under the same terms, next, `Nc1nccn2c([C@@H]3CC[C@H]4CCC(=O)N4C3)nc(-c3ccc(C(O)(c4ccc(C(F)(F)F)cc4)C(F)(F)F)cc3)c12` (stereo partly drawn) [Example 28, (6R,8aS)-6-[8-amino-1-(4-{2,2,2-trifluoro-1-hydroxy-1-[4-(trifluoromethyl)phenyl]ethyl}phenyl)imidazo [1,5-a]pyrazin-3-yl]hexahydroindolizin-3(2H)-one]: 792 nM.
